According to patent publication US8178688B2, “Benzamidine derivatives, process for the preparation thereof and pharmaceutical composition comprising the same” (Dong Wha Pharmaceutical Co., Ltd., priority 2004, dated 2012):
Read-outs that look alike come from different tables or passages of the source.

Legend:
[1] = tested on: osteoclast differentiation; experiment: Inhibitory effects on osteoclast differentiation (co-culture of bone marrow cells with osteoblast, TRAP staining); assay type: cell-based, mice; conditions: for inhibition at 1 µM: Mus musculus, Osteoclast, 168 h, read-out: % inhibitory activity on osteoclastogenesis
Procedure, shortened: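 Percent inhibition versus control is based on microscope counts of TRAP-positive osteoclasts (3 or more nuclei) after 7 days of compound exposure. Cultures paired ddY mouse marrow cells with ICR calvarial osteoblasts, driven by dexamethasone 10^−7M plus vitamin D3 10^−8M, with medium and compound changed every 2–3 days.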

[2] = tested on: osteoblast; experiment: Effect on bone formation (osteoblast nodule mineralization, Alizarin red S); assay type: cell-based, ICR mice; conditions: calvarial osteoblast in osteogenic differentiation medium
Procedure: The osteoblast, treated in this experiment, was prepared from the osteoblast as prepared in the above.
The osteoblast, isolated from sequential enzymatic treatment of calvariae from neonated ICR mice, was cultured in α-MEM medium containing 10% FBS for 4˜5 days. The osteoblast was also cultured for 24 hr after seeding the cells on a 12 well plate (10^5 cell/well), and medium was exchanged with the osteogenic differentiation medium containing 10 mM β-glycerophosphate and 50 μg/ml ascorbic acid.
The test substances at the concentration of 0.1 uM and 0.1 nM were added to the above medium for evaluating the effect promoting bone formation. The differentiation medium containing the test substances was exchanged every 3 or 4 days for 14 to 21 days until confirming the nodule mineralization.
The cell was rinsed twice with distilled water, and fixed by the 10% formalin solutions for 30 minutes. Alizarin red S and Von-kossa Solution were treated on the plate for measuring deposited calcium and phosphate in cell matrix, and the activity of the test substances on the bone formation was analyzed by determining stained area.
Additionally, for the purpose of estimating quantitative Arizarin red S in cell matrix, stained Arizarin red S was extracted by treating 10 mM sodium phosphate solution (pH 7.0), containing 10% cetylpyridinium chloride, for 15˜30 minutes in the shaking incubator, and then the amount of the deposited calcium was estimated by calculating the absorbance of the extracted Arizarin red S at 564 nm. […]

[3] = tested on: cells; experiment: Cytotoxicity test (MTT); assay type: cell-based; conditions: 10^−6M, 72 hrs, compared with the control group
Procedure: Cytotoxic effect of benzamidine derivatives was evaluated by the experiment described below.
The test substance was diluted in appropriate solvent at 10^−2M concentration. […] Cells to be used in cytotoxitic test were plated on a 96-well microplate in a dose of 1×10^4 cell/100 μL per well and cultured for 72 hrs. 25 μL of MTT [3-(4,5-dimethyl-2-thiazolyl)-2,5-diphenyl-2H-tetrazolium bromide] dissolved in PBS at 2 mg/mL were added before 4 hrs of the end of culture. After reaction, the plates were centrifuged, medium was decanted and 100 μL of DMSO was added to dissolve formazan. Lastly, the absorbance of developed plates was measured at 540 nm.

[4] = tested on: ovariectomized ddY mouse; experiment: Therapeutic effect in the ovariectomized osteoporetic mouse model (trabecular bone volume of the femur); assay type: in vivo, ddY mice; conditions: 50 mg/kg/day oral gavage for 4 weeks from 4 weeks after ovariectomy, salts (methansulfonic acid or HCl); for change in vivo at 50 mg/kg: Mus musculus, 672 h, read-out: Changes on TBV (% changes vs vehicle control)
Procedure: The therapeutic effects of each benzamidine derivates were evaluated on the ovariectomized ddY mouse. Benzamidine derivates were dosed from 4 weeks after operation for 4 weeks and the changes on the trabecular bone volume (TBV) of the femur were observed via histomorphometry.
Female ddY mice (6-wk old upon receipt, SLC, Japan) were used after acclimatization for 7 days. Animals were allocated 5 per polycarbonate cage in a temperature (20-25° C.) and humidity (30-35%) controlled room. Light:dark cycle was 12 hr:12 hr and feed (Samyang, Korea) and water were supplied free to access.
Salts of benzamidine derivates (Methansulfonic acid or HCl) were used for the test substances of this invention. Test substances are dissolved and/or suspended in injectable distilled water and administered at a dosage volume of 10 ml/kg by oral gavage. All test substances are dosed from 4 weeks after operation for 4 weeks at 50 mg/kg/day.
To induce estrogen-deficient osteoporosis, bilateral ovaries are removed and then closed by routine methods. Operation was conduct under Ketamine hydrochloride and xylazine hydrochloride anesthesia.
The left femur of each mouse were separated at sacrifice, and fixed in 10% neutral buffered formalin (NBF), then decalcified in decalcifying solution (24.4% formic acid, and 0.5N sodium hydroxide) for 5 days (mixed decalcifying solution was exchanges once a day for 5 days). After the dexalcification, the femur was embedded in paraffin, sectioned (3˜4 μm) and stained with hematoxylin-eosin stain.
TBV was calculated using automated image analysis (analySIS Image Processing; SIS, Germany) under magnification of ×200 in the uniform area of trochlea epiphyseal regions (growth plate regions were excluded) of prepared histological specimens. TBV was calculated as percentage (%) levels.
The changes of TBV compared to that of vehicle control are calculated as following Equation 1 to help the understanding of the efficacy of test substances. Percentage changes=[((TBV of a−TBV of b)/TBV of b)×100] Equation 1

[5] = 1 μm, co-culture of bone marrow cells and osteoblast, 7 days, TRAP-positive osteoclasts versus controls
[6] = 1 m, co-culture of bone marrow cells and osteoblast, 7 days, TRAP-positive osteoclasts versus controls

Structure (SMILES)	inhibition at 1 µM [1, 5]	bone forming activity (%) ([2]; 0.1 nM)	bone forming activity (%) ([2]; 0.1 μM)	melting point	other results
N=C(NO)c1ccc(OCCCCCOc2ccc(-c3csc(-c4cccnc4)n3)cc2)cc1 [Example 7, N-hydroxy-4-(5-[4-(2-pyridin-3-yl-1,3-thiazol-4-yl)phenoxy]pentoxy)-benzamidine]	94.5%	1.24%	9.61%	149 to 154 °C	
CCCCCc1nc(-c2ccc(OCCCCCOc3ccc(C(=N)NO)cc3)cc2)cs1 [Example 9, N-hydroxy-4-(5-[4-(2-pentyl-1,3-thiazol-4-yl)phenoxy]pentoxy)-benzamidine]		6.14%	13.68%		inhibition at 1 µM [1]: 100%
CCc1nc(-c2ccc(OCCCCCOc3ccc(C(=N)NO)cc3)cc2)c(C)s1 [Example 11, N-hydroxy-4-(5-[4-(2-ethyl-5-methyl-1,3-thiazol-4-yl)phenoxy]pentoxy)-benzamidine]	53.2%			127 to 131 °C	Survival rates of the cells ([3]; MC3T3-E1 cells): 87.2%; Survival rates of the cells ([3]; ST2 cells): 33.1%
Cc1sc(C2CCCCC2)nc1-c1ccc(OCCCCCOc2ccc(C(=N)NO)cc2)cc1 [Example 14, N-hydroxy-4-(5-[4-(2-cyclohexyl-5-methyl-1,3-thiazol-4-yl)phenoxy]pentoxy)-benzamidine]	89.2%	10.56%	12.06%		
CCCCCc1nc(-c2ccc(OCCCCCOc3ccc(C(=N)NO)cc3)cc2)c(C)s1 [Example 15, N-hydroxy-4-(5-[4-(5-methyl-2-pentyl-1,3-thiazol-4-yl)phenoxy]pentoxy)-benzamidine]				81 to 89 °C	inhibition at 1 µM [1]: 68.3%; Survival rates of the cells ([3]; MC3T3-E1 cells): 81.8%; Survival rates of the cells ([3]; ST2 cells): 42.3%
CCc1sc(-c2ccccc2)nc1-c1ccc(OCCCCCOc2ccc(C(=N)NO)cc2)cc1 [Example 20, N-hydroxy-4-(5-[4-(5-ethyl-2-phenyl-1,3-thiazol-4-yl)phenoxy]pentoxy)-benzamidine]	35.6%			83 to 86 °C	
CCc1sc(-c2cccnc2)nc1-c1ccc(OCCCCCOc2ccc(C(=N)NO)cc2)cc1 [Example 21, N-hydroxy-4-(5-[4-(5-ethyl-2-pyridin-3-yl-1,3-thiazol-4-yl)phenoxy]pentoxy)-benzamidine]				146 to 153 °C	change in vivo at 50 mg/kg [4]: 75.5%
CCc1sc(C2CCCCC2)nc1-c1ccc(OCCCCCOc2ccc(C(=N)NO)cc2)cc1 [Example 22, N-hydroxy-4-(5-[4-(2-cyclohexyl-5-ethyl-1,3-thiazol-4-yl)phenoxy]pentoxy)-benzamidine]	92.6%	10.33%	8.56%		
CCCCCc1nc(-c2ccc(OCCCCCOc3ccc(C(=N)NO)cc3)cc2)c(CC)s1 [Example 23, N-hydroxy-4-(5-[4-(5-ethyl-2-pentyl-1,3-thiazol-4-yl)phenoxy]pentoxy)-benzamidine]				79 to 88 °C	inhibition at 1 µM [1]: 47.7%; change in vivo at 50 mg/kg [4]: 28%
CCCCc1sc(C)nc1-c1ccc(OCCCCCOc2ccc(C(=N)NO)cc2)cc1 [Example 30, N-hydroxy-4-(5-[4-(5-butyl-2-methyl-1,3-thiazol-4-yl)phenoxy]pentoxy)-benzamidine]	47.7%			138 to 140 °C	
CCCCc1sc(CC)nc1-c1ccc(OCCCCCOc2ccc(C(=N)NO)cc2)cc1 [Example 31, N-hydroxy-4-(5-[4-(5-butyl-2-ethyl-1,3-thiazol-4-yl)phenoxy]pentoxy)-benzamidine]	35.6%			80 to 84 °C	
CCCCc1sc(-c2cccnc2)nc1-c1ccc(OCCCCCOc2ccc(C(=N)NO)cc2)cc1 [Example 34, N-hydroxy-4-(5-[4-(5-butyl-2-pyridin-3-yl-1,3-thiazol-4-yl)phenoxy]pentoxy)-benzamidine]	28.7%			107 to 118 °C	
CC(C)c1nc(-c2ccc(OCCCCCOc3ccc(C(=N)NO)cc3)cc2)c(Cc2ccccc2)s1 [Example 39, N-hydroxy-4-(5-[4-(5-benzyl-2-isopropyl-1,3-thiazol-4-yl)phenoxy]pentoxy)-benzamidine]	37.5%			108 to 120 °C	
N=C(NO)c1ccc(OCCCCCOc2ccc(-c3nc(-c4cccnc4)sc3Cc3ccccc3)cc2)cc1 [Example 41, N-hydroxy-4-(5-[4-(5-benzyl-2-pyridin-3-yl-1,3-thiazol-4-yl)phenoxy]pentoxy)-benzamidine]	64%			134 to 143 °C	Survival rates of the cells ([3]; MC3T3-E1 cells): 84.6%; Survival rates of the cells ([3]; ST2 cells): 48.7%
CCNc1nc(-c2ccc(OCCCCCOc3ccc(C(=N)NO)cc3)cc2)c(CC2CCCC2)s1 [Example 110, N-hydroxy-4-(5-[4-(5-cyclopentylmethyl-2-ethylamino-1,3-thiazol-4-yl)phenoxy]pentoxy)-benzamidine]		9.76%	9.37%		inhibition at 1 µM [1, 6]: 100%
CCN(CCN1CCOCC1)c1nc(-c2ccc(OCCCCCOc3ccc(C(=N)NO)cc3)cc2)c(C)s1 [Example 124, N-hydroxy-4-(5-[4-(2-(ethyl-1-(2-morpholinoethyl)-amino)-5-methyl-1,3-thiazol-4-yl)phenoxy]pentoxy)-benzamidine]		6.44%	12.9%		% inhibitory activity on osteoclastogenesis ([1]; co-culture of bone marrow cells and osteoblast, 7 days, TRAP-positive osteoclasts versus controls): 87.9%; Changes on TBV (% changes vs vehicle control) [4]: 72.82%
CCc1sc(N(C)CCO)nc1-c1ccc(OCCCCCOc2ccc(C(=N)NO)cc2)cc1 [Example 129, N-hydroxy-4-(5-[4-(5-ethyl-2-((2-hydroxyethyl)-methyl-amino)-1,3-thiazol-4-yl)phenoxy]pentoxy)-benzamidine]		11.18%	11.54%		inhibition at 1 µM [1, 6]: 64.7%
